Source: patent US9079821B2, “Quinone based nitric oxide donating compounds” (NICOX S.A., priority 2011, dated 2015)
Where two headings read alike, the source gives them in different places.

Key:
[1] = system: lipid peroxidation of hepatic microsomal membranes; experiment: In vitro antioxidant activity (TBARS test), Method B (2.5 μM FeSO4); format: biochemical, rat; details: inhibition of TBARS production, read-out: Antioxidant activity IC50 μM (CL 95%)
Description: The antioxidant properties of compounds (6) (disclosed in example 1) and compound (23) (disclosed in example 19) and reference antioxidant compounds were assessed after NADPH-induced lipidic peroxidation of membrane lipids in rat hepatocytes using the detection of 2-thiobarbituric acid reactive substances (TBARS) by visible spectroscopy. Hepatic microsomal membranes from male Wistar rats (200-250 g) were prepared by differential centrifugation (8000 g, 20 min; 120000 g, 1 h) in a HEPES/sucrose buffer (10 mM, 250 mM, pH 7.4) and stored at −80° C. Incubation was performed at 37° C. in a Tris-HCl/KCl (100 mM/150 mM, pH 7.4) containing microsomal membranes (2 mg prot/mL), sodium ascorbate (100 μM), and DMSO solutions of the tested compounds. Lipid peroxidation was initiated by adding ADP-FeCl3 and NADPH (Method A) or 2.5 μM FeSO4 (Method B) (as described by Boschi D. et al., J. Med. Chem. 2006, 49:2886-2897). Aliquots were taken from the incubation mixture at 5, 15, and 30 min and treated with trichloroacetic acid (TCA) 10% w/v. Lipid peroxidation was assessed by spectrophotometric (543 nm) determination of the TBARS consisting mainly of malondialdehyde (MDA). TBARS concentrations (expressed in nmol/mg protein) were obtained by interpolation with a MDA standard curve. […] IC50 values were calculated by nonlinear regression analysis.

[2] = system: lipid peroxidation of hepatic microsomal membranes; details: Method B; values from Chegaev, K. et al. (footnotes a, b); read-out: Antioxidant activity IC50 μM (CL 95%); cited from earlier work
[3] = system: NADPH-induced lipidic peroxidation of membrane lipids (hepatic microsomal membranes); experiment: In vitro antioxidant activity (TBARS test), Method A (ADP-FeCl3 and NADPH); format: biochemical, rat; details: inhibition of TBARS production after 30 min incubation, read-out: Antioxidant activity IC50 μM (CL 95%)
Description: The antioxidant properties of compounds (6) (disclosed in example 1) and compound (23) (disclosed in example 19) and reference antioxidant compounds were assessed after NADPH-induced lipidic peroxidation of membrane lipids in rat hepatocytes using the detection of 2-thiobarbituric acid reactive substances (TBARS) by visible spectroscopy.
Hepatic microsomal membranes from male Wistar rats (200-250 g) were prepared by differential centrifugation (8000 g, 20 min; 120000 g, 1 h) in a HEPES/sucrose buffer (10 mM, 250 mM, pH 7.4) and stored at −80° C. Incubation was performed at 37° C. in a Tris-HCl/KCl (100 mM/150 mM, pH 7.4) containing microsomal membranes (2 mg prot/mL), sodium ascorbate (100 μM), and DMSO solutions of the tested compounds. Lipid peroxidation was initiated by adding ADP-FeCl3 and NADPH (Method A) or 2.5 μM FeSO4 (Method B) (as described by Boschi D. et al., J. Med. Chem. 2006, 49:2886-2897). Aliquots were taken from the incubation mixture at 5, 15, and 30 min and treated with trichloroacetic acid (TCA) 10% w/v. Lipid peroxidation was assessed by spectrophotometric (543 nm) determination of the TBARS consisting mainly of malondialdehyde (MDA). TBARS concentrations (expressed in nmol/mg protein) were obtained by interpolation with a MDA standard curve. The antioxidant activity of tested compounds was evaluated as the percent inhibition of TBARS production with respect to control samples, using the values obtained after 30 min of incubation. IC50 values were calculated by nonlinear regression analysis.

SMILES	IC50 [3]	IC50 [2]	also measured
O=C(O)/C=C/c1ccc(O)c(O)c1 [Caffeic acid]			IC50 [1]: 33 µM
COc1ccc2[nH]cc(CCNC(C)=O)c2c1 [Melatonin]		476 µM	
CC1=NN(c2ccccc2)C(=O)C1 [Edavarone]		17 µM	

Continued, in another order:

IC50 [3]	SMILES	IC50 [2]	also measured
1.6 µM	COC1=C(OC)C(=O)C(CCCCCCCCCCO)=C(C)C1=O [Idebenone, reference compound]		
1.4 µM	CC1=C(CCCCCCO[N+](=O)[O-])C(=O)c2ccccc2C1=O [Compound (23), 6-(3-methyl-1,4-dioxo-1,4-dihydronaphthalen-2-yl) hexyl nitrate]		
